Test results taken from patent US20200115698A1, “PHARMACEUTICAL COMBINATION FOR TREATMENT OF FABRY DISEASE AND USE THEREOF” (MEIJI PHARMACEUTICAL UNIVERSITY, priority 2017, published 2020).

Legend:
[1] = target: T1, recombinant α-GAL (Homo sapiens, UniProt P06280); details: simultaneous administration to a patient of Fabry disease; cited from earlier work
T1 sequence (P06280 32-429): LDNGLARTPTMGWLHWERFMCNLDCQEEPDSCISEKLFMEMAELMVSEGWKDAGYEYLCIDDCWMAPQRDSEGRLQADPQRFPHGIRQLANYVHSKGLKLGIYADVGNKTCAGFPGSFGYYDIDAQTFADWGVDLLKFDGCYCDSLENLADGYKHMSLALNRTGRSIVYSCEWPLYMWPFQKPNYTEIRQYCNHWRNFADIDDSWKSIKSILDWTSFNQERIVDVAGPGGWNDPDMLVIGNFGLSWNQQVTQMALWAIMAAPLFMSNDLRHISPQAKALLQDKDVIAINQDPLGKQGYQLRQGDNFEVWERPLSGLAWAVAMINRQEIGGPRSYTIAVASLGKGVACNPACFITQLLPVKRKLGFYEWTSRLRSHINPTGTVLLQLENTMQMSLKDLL

[2] = target: T2, α-NAGA mutant (SEQ ID NO:8) (Homo sapiens, UniProt P17050, A191L/S188E); assay: Screening of inhibitor (1): remaining enzyme activity of α-NAGA mutant with 4-methylumbelliferyl α-D-galactopyranoside; type: biochemical; details: 400 μM compound, pH 4.6, 37° C., 30 minutes
T2 sequence (P17050 with tags, fused parts or gaps S188E/A191L): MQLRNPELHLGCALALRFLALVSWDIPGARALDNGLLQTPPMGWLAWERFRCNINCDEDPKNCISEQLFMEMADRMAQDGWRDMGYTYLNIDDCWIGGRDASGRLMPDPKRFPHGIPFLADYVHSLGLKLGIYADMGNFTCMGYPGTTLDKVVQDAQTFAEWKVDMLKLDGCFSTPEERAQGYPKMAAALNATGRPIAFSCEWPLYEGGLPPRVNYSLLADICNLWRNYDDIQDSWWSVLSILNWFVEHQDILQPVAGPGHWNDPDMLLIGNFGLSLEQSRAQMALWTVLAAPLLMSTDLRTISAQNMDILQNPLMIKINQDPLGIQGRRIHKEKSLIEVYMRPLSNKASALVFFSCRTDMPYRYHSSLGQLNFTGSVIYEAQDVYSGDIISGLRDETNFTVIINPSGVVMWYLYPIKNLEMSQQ
Protocol: The screening of inhibitor was carried out as follows: An inhibitor candidate compound dissolved in purified water or DMSO was added to 20 ng of an α-NAGA mutant (SEQ ID NO:8) and 4 mM 4-methylumbelliferylα-D-galactopyranoside dissolved in 0.1 M phosphate-citrate buffer (pH 4.6) such that a concentration of the inhibitor candidate compound became 0.8, 1, or 400 μM, and the mixture thus obtained was caused to react at 37° C. for 30 minutes (the total amount was 50 μl). After the reaction, 950 μl of 0.2 M glycine buffer (pH 10.7) was added to stop the reaction. Then, released 4-methylumbelliferone was measured at an excitation wavelength of 355 nm and at a fluorescence wavelength of 460 nm with use of Wallac 1420 ARVO MX Multilabel Counter. Remaining enzyme activity was calculated based on the assumption that an enzyme activity value obtained in a case where purified water or DMSO is added instead of the inhibitor candidate compound is 100%.

[3] = tested on: cultivated fibroblast derived from a Fabry disease model mouse; assay: Simultaneous addition of α-NAGA mutant and DGJ to cultivated fibroblast derived from Fabry disease model mouse; type: cell-based; details: 1 μg/mL α-NAGA mutant plus 0-500 μM DGJ, 24 hours; FIG. 5
Protocol: A cultivated fibroblast derived from a Fabry disease model mouse was cultured at 37° C. under a 5% carbon dioxide environment with use of a DMEM medium to which a 10% fetal calf serum and an antibiotic substance had been added. First, concentration dependence of DGJ with respect to uptake efficiency of an α-NAGA mutant was analyzed. The cells were seeded to a 12-well plate at 1.0×10^5 cells/well. The medium was exchanged with an F-10 medium that contained 1 μg/mL of an α-NAGA mutant, any of concentrations (0, 1, 10, 100, and 500 μM) of DGJ, a 10% fetal calf serum, and an antibiotic substance, and cultivation was carried out for 24 hours. […] The homogenate thus obtained was subjected to centrifugal separation under conditions of 4° C. and 12,000 rpm, and the obtained supernatant liquid was used as samples for enzyme activity measurement, protein quantification, and Western blotting. […] Then, released 4-methylumbelliferone was measured at an excitation wavelength of 355 nm and at a fluorescence wavelength of 460 nm with use of Wallac 1420 ARVO MX Multilabel Counter (Perkin Elmer, Waltham, Mass.). Protein quantification was carried out with Micro BCA method (Micro BCA (trademark) Protein Assay Reagent Kit: Pierce) while using a concentration of bovine serum albumin (Albumin standard: Pierce Biotechnology, Inc., Rockford, Ill.) as a standard. […]

inhibition effect on α-NAGA mutant (remaining enzyme activity) [2]: the inhibition effect was seen
Compound: OCC1NCC(O)C(O)C1O [DGJ, (2R,3S,4R,5S)-2-(hydroxymethyl)piperdine-3,4,5-triol]
stabilization of administered recombinant α-GAL in the blood [1]: recombinant α-GAL was stabilized
α-NAGA mutant enzyme activity in cells [3]: enzyme activity was improved
